The target in one assay is T1, ATR kinase (Homo sapiens, UniProt Q13535).
T1 construct: endogenous in cells; host or cells: HT29 cells (ECACC #85061109)
Nature of the assay: Assay b): ATR cellular potency (pChk1 Ser345 in HT29 cells after 4NQO). It is filed as cell-based. As to conditions: HT29 cells, 4NQO, pChk1 Ser345; Table 2; read-out: Assay b) ATR Cell IC50. The protocol: ATR is a PI 3-kinase-related kinase which phosphorylates multiple substrates on serine or threonine residues in response to DNA damage during or replication blocks. Chk1, a downstream protein kinase of ATR, plays a key role in DNA damage checkpoint control. Activation of Chk1 involves phosphorylation of Ser317 and Ser345 (the latter regarded as the preferential target for phosphorylation/activation by ATR).
The following morning compound of Formula (I) in 100% DMSO were added to assay plates by acoustic dispensing. After 1 h incubation at 37° C. and 5% CO2, 40 nl of 3 mM 4NQO in 100% DMSO was added to all wells by acoustic dispensing, except minimum control wells which were left untreated with 4NQO to generate a null response control. Plates were returned to the incubator for a further 1 h. […] Then 20 μl of 0.1% Triton X100 in PBS was added and incubated for 10 minutes at r.t., to permeabalise cells. Then the plates were washed once with 50 μl/well PBS, using a Biotek EL405 plate washer.
After 2 h incubation at r.t., the plates were washed three times with 50 μl/well PBS, using a Biotek EL405 plate washer, and plates were then sealed with black plate seals until read. Plates were read using an ArrayScan VTI instrument, using an XF53 filter with 10× objective.

The target of the next assay is T2, ATM kinase (Homo sapiens, UniProt Q13315).
T2 construct: endogenous in cells; host or cells: HT29 cells (ECACC #85061109)
Nature of the assay: Assay a): ATM cellular potency (pATM Ser1981 in irradiated HT29 cells). It counts as cell-based. As to conditions: HT29 cells, X-ray irradiation, pATM Ser1981; Table 2; read-out: Assay a) ATM Cell IC50. Here is the method: Most ATM molecules in the cell are rapidly phosphorylated on this site after doses of radiation as low as 0.5 Gy, and binding of a phosphospecific antibody is detectable after the introduction of only a few DNA double-strand breaks in the cell.
The rationale of the p ATM assay is to identify inhibitors of ATM in cells. HT29 cells are incubated with test compounds for 1 hr prior to X-ray-irradiation. 1 h later the cells are fixed and stained for p ATM (Ser1981). The fluorescence is read on the arrayscan imaging platform.
The following morning compounds of Formula (I) in 100% DMSO were added to assay plates by acoustic dispensing. After 1 h incubation at 37° C. and 5% CO2, plates (up to 6 at a time) were irradiated using the X-RAD 320 instrument (PXi) with equivalent to ˜600cGy. Plates were returned to the incubator for a further 1 h. […] Then 20 μl of 0.1% Triton X100 in PBS was added and incubated for 20 minutes at r.t., to permeabalise cells. Then the plates were washed once with […] PBS, using a Biotek EL405 plate washer.
After 1 h incubation at r.t., the plates were washed three times with 50 μl/well PBS, using a Biotek EL405 plate washer, and plates were sealed and kept in PBS at 4° C. until read. Plates were read using an ArrayScan VTI instrument, using an XF53 filter with 10× objective.

SMILES strings stand for the structures.

T2 sequence (Q13315 whole entry): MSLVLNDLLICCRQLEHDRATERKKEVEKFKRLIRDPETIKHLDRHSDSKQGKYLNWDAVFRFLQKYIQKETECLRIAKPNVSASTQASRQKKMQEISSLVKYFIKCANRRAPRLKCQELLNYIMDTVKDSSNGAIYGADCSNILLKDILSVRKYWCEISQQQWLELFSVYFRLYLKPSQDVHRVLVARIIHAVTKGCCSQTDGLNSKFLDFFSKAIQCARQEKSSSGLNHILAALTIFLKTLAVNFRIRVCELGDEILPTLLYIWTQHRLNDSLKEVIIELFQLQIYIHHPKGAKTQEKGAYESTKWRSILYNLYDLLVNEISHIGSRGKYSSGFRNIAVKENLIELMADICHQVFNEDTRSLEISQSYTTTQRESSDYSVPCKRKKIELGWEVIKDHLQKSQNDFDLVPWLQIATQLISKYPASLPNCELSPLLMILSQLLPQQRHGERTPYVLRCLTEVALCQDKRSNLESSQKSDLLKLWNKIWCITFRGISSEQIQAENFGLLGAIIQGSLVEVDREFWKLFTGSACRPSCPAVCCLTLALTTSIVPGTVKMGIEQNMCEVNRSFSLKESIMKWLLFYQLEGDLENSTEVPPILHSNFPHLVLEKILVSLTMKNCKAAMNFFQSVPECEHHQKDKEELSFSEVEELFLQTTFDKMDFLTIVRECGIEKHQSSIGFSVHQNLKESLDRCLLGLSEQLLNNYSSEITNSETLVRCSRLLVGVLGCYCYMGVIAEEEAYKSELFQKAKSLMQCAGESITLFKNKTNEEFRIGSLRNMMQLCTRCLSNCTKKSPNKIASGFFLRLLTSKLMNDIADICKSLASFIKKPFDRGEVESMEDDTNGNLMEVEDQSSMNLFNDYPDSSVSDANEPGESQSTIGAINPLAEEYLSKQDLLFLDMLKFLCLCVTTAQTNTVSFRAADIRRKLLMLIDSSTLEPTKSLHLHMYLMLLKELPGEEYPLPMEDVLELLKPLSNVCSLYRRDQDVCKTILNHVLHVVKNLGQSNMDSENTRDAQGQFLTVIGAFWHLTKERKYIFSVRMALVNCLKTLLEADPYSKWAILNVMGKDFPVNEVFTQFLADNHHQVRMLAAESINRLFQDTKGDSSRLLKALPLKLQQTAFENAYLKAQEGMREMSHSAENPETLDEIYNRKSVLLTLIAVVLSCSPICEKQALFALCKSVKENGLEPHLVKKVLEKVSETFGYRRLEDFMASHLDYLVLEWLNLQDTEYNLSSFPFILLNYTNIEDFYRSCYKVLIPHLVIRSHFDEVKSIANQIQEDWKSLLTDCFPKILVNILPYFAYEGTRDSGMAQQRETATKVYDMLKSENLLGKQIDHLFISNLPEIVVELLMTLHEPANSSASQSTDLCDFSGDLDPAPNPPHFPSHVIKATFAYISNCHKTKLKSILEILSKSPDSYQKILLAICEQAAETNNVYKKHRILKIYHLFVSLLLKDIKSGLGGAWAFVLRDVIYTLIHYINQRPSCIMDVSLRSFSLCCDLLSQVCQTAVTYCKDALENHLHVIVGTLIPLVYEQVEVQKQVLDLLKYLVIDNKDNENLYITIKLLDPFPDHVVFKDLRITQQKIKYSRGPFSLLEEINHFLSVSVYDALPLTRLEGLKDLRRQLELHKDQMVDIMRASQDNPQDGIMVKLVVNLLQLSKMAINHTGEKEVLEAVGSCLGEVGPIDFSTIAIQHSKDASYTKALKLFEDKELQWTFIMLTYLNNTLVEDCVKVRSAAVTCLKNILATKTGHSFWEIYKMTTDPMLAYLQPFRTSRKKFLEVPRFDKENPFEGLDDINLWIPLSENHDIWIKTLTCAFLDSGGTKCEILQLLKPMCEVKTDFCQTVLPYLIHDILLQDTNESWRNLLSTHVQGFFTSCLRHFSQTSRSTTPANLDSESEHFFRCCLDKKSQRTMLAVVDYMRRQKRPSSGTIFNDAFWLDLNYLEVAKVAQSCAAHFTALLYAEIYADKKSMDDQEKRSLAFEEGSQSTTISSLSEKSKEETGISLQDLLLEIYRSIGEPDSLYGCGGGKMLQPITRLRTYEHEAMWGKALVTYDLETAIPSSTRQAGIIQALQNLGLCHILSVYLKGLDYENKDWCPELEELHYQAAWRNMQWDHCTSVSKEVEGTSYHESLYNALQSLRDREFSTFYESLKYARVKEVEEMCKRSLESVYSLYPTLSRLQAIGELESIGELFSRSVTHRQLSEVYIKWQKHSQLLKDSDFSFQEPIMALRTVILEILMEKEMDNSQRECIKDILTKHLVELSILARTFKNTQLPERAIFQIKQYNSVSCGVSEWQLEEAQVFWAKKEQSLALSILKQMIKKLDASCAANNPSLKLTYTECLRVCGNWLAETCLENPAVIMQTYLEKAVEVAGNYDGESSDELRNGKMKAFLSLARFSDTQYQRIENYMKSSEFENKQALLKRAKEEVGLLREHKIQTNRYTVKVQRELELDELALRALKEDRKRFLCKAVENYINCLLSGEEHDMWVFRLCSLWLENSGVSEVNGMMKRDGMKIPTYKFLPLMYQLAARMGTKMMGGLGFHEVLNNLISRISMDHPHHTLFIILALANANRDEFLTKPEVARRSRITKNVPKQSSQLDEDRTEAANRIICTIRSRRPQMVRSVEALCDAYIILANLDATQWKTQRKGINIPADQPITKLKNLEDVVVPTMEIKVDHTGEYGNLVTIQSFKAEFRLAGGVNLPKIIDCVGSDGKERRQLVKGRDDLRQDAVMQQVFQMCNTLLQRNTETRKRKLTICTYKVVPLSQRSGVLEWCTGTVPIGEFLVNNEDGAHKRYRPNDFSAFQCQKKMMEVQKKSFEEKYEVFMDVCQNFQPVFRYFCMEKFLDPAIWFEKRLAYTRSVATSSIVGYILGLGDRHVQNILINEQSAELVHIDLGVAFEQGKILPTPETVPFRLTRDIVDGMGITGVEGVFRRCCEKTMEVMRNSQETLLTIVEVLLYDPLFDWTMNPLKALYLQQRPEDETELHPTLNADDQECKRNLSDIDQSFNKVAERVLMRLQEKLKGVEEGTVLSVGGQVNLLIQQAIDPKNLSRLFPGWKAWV

As for `CO[C@H]1CCC[C@H](n2c(=O)n(C)c3cnc4ccc(-c5ccc(OCCCN(C)C)cc5)cc4c32)C1` (single isomer, unassigned) [Example 29, 8-[4-[3-(dimethylamino)propoxy]phenyl]-1-[trans-3-methoxycyclohexyl]-3-methyl-imidazo[4,5-c]quinolin-2-one], the IC50 worked out at 12800 nM on ATR kinase and 1.64 nM on ATM kinase.
Consider `CC(C)n1c(=O)n(C)c2cnc3ccc(-c4ccc(OCCCN(C)C)cc4)cc3c21` [Example 1, 8-[4-[3-(Dimethylamino)propoxy]phenyl]-1-isopropyl-3-methyl-imidazo[4,5-c]quinolin-2-one], for which the IC50 at ATR kinase is greater than 30000 nM.
Turning to `CO[C@H]1C[C@@H](n2c(=O)n(C)c3cnc4ccc(-c5ccc(OCCCN6CCCC6)cc5)cc4c32)C1` [Example 41, 1-(cis-3-methoxycyclobutyl)-3-methyl-8-[4-(3-pyrrolidin-1-ylpropoxy)phenyl]imidazo[4,5-c]quinolin-2-one], the concentration for half-maximal inhibition (IC50) at ATR kinase was greater than 28800 nM; at ATM kinase, 0.23 nM.
For `CO[C@H]1CC[C@@H](n2c(=O)n(C)c3cnc4ccc(-c5ccc(OCCCN6CCCC6)cc5)cc4c32)CC1` [Example 27, 1-(cis-4-methoxycyclohexyl)-3-methyl-8-[4-(3-pyrrolidin-1-ylpropoxy)phenyl]imidazo[4,5-c]quinolin-2-one], the IC50 at ATR kinase was greater than 18500 nM; on ATM kinase it was 0.492 nM.
In the case of `CC(C)n1c(=O)n(C)c2cnc3ccc(-c4ccc(OCCCN5CCCC5)cc4)cc3c21` [Example 2, 1-isopropyl-3-methyl-8-[4-(3-pyrrolidin-1-ylpropoxy)phenyl]imidazo[4,5-c]quinolin-2-one], the IC50 is greater than 30000 nM on ATR kinase and 0.984 nM on ATM kinase.
`CO[C@H]1CCC[C@H](n2c(=O)n(C)c3cnc4ccc(-c5ccc(OCCCN6CCCC6)cc5)cc4c32)C1` (single isomer, unassigned) [Example 31, 1-[trans-3-methoxycyclohexyl]-3-methyl-8-[4-(3-pyrrolidin-1-ylpropoxy)phenyl]imidazo[4,5-c]quinolin-2-one]: the IC50 at ATR kinase came to 10900 nM; on ATM kinase it was 0.706 nM.
In the same order, the values of `CO[C@H]1CC[C@H](n2c(=O)n(C)c3cnc4ccc(-c5ccc(OCCCN(C)C)cc5)cc4c32)CC1` [Example 26, 8-[4-[3-(dimethylamino)propoxy]phenyl]-1-(trans-4-methoxycyclohexyl)-3-methyl-imidazo[4,5-c]quinolin-2-one] are greater than 30000 nM and 0.467 nM.
Regarding `CO[C@@H]1CCC[C@H](n2c(=O)n(C)c3cnc4ccc(-c5ccc(OCCCN(C)C)cc5)cc4c32)C1` (relative stereo) [Example 32, 8-[4-[3-(dimethylamino)propoxy]phenyl]-1-[cis-3-methoxycyclohexyl]-3-methyl-imidazo[4,5-c]quinolin-2-one], the figures for the IC50 on ATR kinase and on ATM kinase were greater than 30000 nM and 2.37 nM, respectively.
Consider `CO[C@H]1CC[C@H](n2c(=O)n(C)c3cnc4ccc(-c5ccc(OCCCN6CCCCC6)cc5)cc4c32)C1` [Example 40, 1-[(1S,3S)-3-methoxycyclopentyl]-3-methyl-8-[4-[3-(1-piperidyl)propoxy]phenyl]imidazo[4,5-c]quinolin-2-one], for which the IC50 at ATM kinase came to 0.349 nM.
Regarding `CO[C@H]1CC[C@H](n2c(=O)n(C)c3cnc4cc(F)c(-c5ccc(OCCCN(C)C)cc5)cc4c32)C1` (single isomer, unassigned) [Example 13, 8-[4-[3-(dimethylamino)propoxy]phenyl]-7-fluoro-1-[trans-3-methoxycyclopentyl]-3-methyl-imidazo[4,5-c]quinolin-2-one], the IC50 at ATR kinase is greater than 30000 nM; at ATM kinase, 1.63 nM.
With `CO[C@@H]1CC[C@H](n2c(=O)n(C)c3cnc4cc(F)c(-c5ccc(OCCCN(C)C)cc5)cc4c32)C1` (single isomer, unassigned) [Example 36, 8-[4-[3-(dimethylamino)propoxy]phenyl]-7-fluoro-1-[cis-3-methoxycyclopentyl]-3-methyl-imidazo[4,5-c]quinolin-2-one], the IC50 was greater than 30000 nM on ATR kinase and 5.77 nM at ATM kinase.
As to `CO[C@@H]1CC[C@@H](n2c(=O)n(C)c3cnc4cc(F)c(-c5ccc(OCCCN(C)C)cc5)cc4c32)C1` (single isomer, unassigned) [Example 14, 8-[4-[3-(dimethylamino)propoxy]phenyl]-7-fluoro-1-[trans-3-methoxycyclopentyl]-3-methyl-imidazo[4,5-c]quinolin-2-one], the IC50 on ATR kinase was greater than 29400 nM; on ATM kinase, 1.37 nM.
For the molecule `CC(C)n1c(=O)n(C)c2cnc3ccc(-c4ccc(OCCCN5CCC5)cc4)cc3c21` [Example 3, 8-[4-[3-(azetidin-1-yl)propoxy]phenyl]-1-isopropyl-3-methyl-imidazo[4,5-c]quinolin-2-one], the IC50 was greater than 30000 nM on ATR kinase and 0.173 nM on ATM kinase.
Take `Cn1c(=O)n(C2CCOCC2)c2c3cc(-c4ccc(OCCCN5CCCC5)cc4)c(F)cc3ncc21` [Example 46, 7-fluoro-3-methyl-8-[4-(3-pyrrolidin-1-ylpropoxy)phenyl]-1-tetrahydropyran-4-yl-imidazo[4,5-c]quinolin-2-one]: the half-inhibitory concentration (IC50) at ATR kinase was 16800 nM; at ATM kinase, 2 nM.
The like results for `Cn1c(=O)n([C@@H]2CCCOC2)c2c3cc(-c4ccc(OCCCN5CCCC5)cc4)ccc3ncc21` [Example 16, 3-methyl-8-[4-(3-pyrrolidin-1-ylpropoxy)phenyl]-1-[(3R)-tetrahydropyran-3-yl]imidazo[4,5-c]quinolin-2-one] were, in that order, greater than 26000 nM and 0.797 nM.
Regarding `CN(C)CCCOc1ccc(-c2cc3c(cc2F)ncc2c3n([C@H]3CCCOC3)c(=O)n2C)cc1` [Example 10, 8-[4-[3-(dimethylamino)propoxy]phenyl]-7-fluoro-3-methyl-1-[(3S)-tetrahydropyran-3-yl]imidazo[4,5-c]quinolin-2-one], the values for the IC50 on ATR kinase and at ATM kinase were greater than 30000 nM and 3.92 nM, respectively.
On to `CO[C@H]1CCC[C@H](n2c(=O)n(C)c3cnc4ccc(-c5ccc(OCCCN(C)C)cc5)cc4c32)C1` (single isomer, unassigned) [Example 28, 8-[4-[3-(dimethylamino)propoxy]phenyl]-1-[trans-3-methoxycyclohexyl]-3-methyl-imidazo[4,5-c]quinolin-2-one], for which the IC50 on ATR kinase turned out to be 11300 nM; at ATM kinase it was 0.285 nM.
Turning to `CO[C@@H]1CCC[C@H](n2c(=O)n(C)c3cnc4ccc(-c5ccc(OCCCN6CCCC6)cc5)cc4c32)C1` (relative stereo) [Example 38, 1-[cis-3-methoxycyclohexyl]-3-methyl-8-[4-(3-pyrrolidin-1-ylpropoxy)phenyl]imidazo[4,5-c]quinolin-2-one], the half-maximal inhibitory concentration (IC50) at ATR kinase is 19200 nM; on ATM kinase it was 2.29 nM.
Take `CO[C@H]1CC[C@H](n2c(=O)n(C)c3cnc4ccc(-c5ccc(OCCCN6CCCC6)cc5)cc4c32)CC1` [Example 22, 1-(trans-4-methoxycyclohexyl)-3-methyl-8-[4-(3-pyrrolidin-1-ylpropoxy)phenyl]imidazo[4,5-c]quinolin-2-one]: the IC50 was greater than 10000 nM at ATR kinase and 0.458 nM at ATM kinase.

As usually defined, the IC50 is the concentration at which inhibition is half-maximal.

The values are drawn from patent US20180318287A1, “Imidazo[4,5-c]quinolin-2-one Compounds and Their Use in Treating Cancer” (ASTRAZENECA AB, priority 2015, published 2018).
